Test: Biological Methods: HIV cell culture assay-MT-2 cells, 293T cells and the proviral DNA clone of NL4-3 virus were obtained from the NIH AIDS Research and Reference Reagent Program. MT-2 cells were propagated in RPMI 1640 media supplemented with 10% heat inactivated fetal bovine serum (FBS), 100 jag/ml penicillin G and up to 100 units/mL streptomycin. The 293T cells were propagated in DMEM media supplemented with 10% heat inactivated FBS, 100 μg/mL penicillin G and 100 μg/mL streptomycin. A recombinant NL4-3 proviral clone, in which a section of the nef gene was replaced with the Renilla luciferase gene, was used to make the reference virus used in these studies. The recombinant virus was prepared through transfection of the recombinant NL4-3 proviral clone into 293T cells using Transit-293 Transfection Reagent from Mirus Bio LLC (Madison, Wis.). Supernatant was harvested after 2-3 days and the amount of virus present was titered in MT-2 cells using luciferase enzyme activity as a marker by measuring luciferase enzyme activity. Luciferase was quantitated using the EnduRen Live Cell Substrate from Promega (Madison, Wis.). Antiviral activities of compounds toward the recombinant virus were quantified by measuring luciferase activity in MT-2 cells infected for 4-5 days with the recombinant virus in the presence of serial dilutions of the compound.
Assay type: cell-based

Row | SMILES | EC50
1 | C[C@H]1CCc2ccccc2N1S(=O)(=O)NC(=O)N[C@@H](Cc1cc(F)cc(F)c1)C(=O)N(C)c1ccc2scnc2c1 | 90 nM
2 | C[C@@H]1Cc2cccnc2N1S(=O)(=O)NC(=O)N[C@@H](Cc1cc(F)cc(F)c1)C(=O)N(C)c1ccc2scnc2c1 | 20 nM
3 | C[C@H]1Cc2cccnc2N1S(=O)(=O)NC(=O)N[C@@H](Cc1cc(F)cc(F)c1)C(=O)N(C)c1ccc2scnc2c1 | 50 nM
4 | C[C@@H]1CCc2ccccc2N1S(=O)(=O)NC(=O)N[C@@H](Cc1cc(F)cc(F)c1)C(=O)N(C)c1ccc2scnc2c1 | 100 nM
5 | CC1CN(S(=O)(=O)NC(=O)N[C@@H](Cc2cc(F)cc(F)c2)C(=O)N(C)c2ccc3scnc3c2)c2ncccc21 (single isomer, unassigned) | < 10 nM
